Numbers after ± are expanded uncertainties.

Results on 4 molecules are retold here after the NIST ThermoML archive (doi:10.1021/je400134d).

For this data set the following is noted: 101.33 kPa, Liquid; for speed of sound: Pulse-echo method; for mass density: Vibrating tube method.

The term speed of sound denotes the propagation velocity of pressure waves in the medium. What is called mass density is the mass of a sample divided by its volume. For `Cc1ccccc1` [toluene], the speed of sound is 1325.8 ± 0.9 m/s (293.15 K), 1304.4 ± 0.8 m/s (298.15 K) and 1283.7 ± 0.8 m/s (303.15 K). The mass density is, setting by setting: (293.15 K) 866.98 ± 0.1 kg/m3; (298.15 K) 862.295 ± 0.11 kg/m3; (303.15 K) 857.725 ± 0.11 kg/m3.

For `CNc1ccccc1` [N-methylaniline], the speed of sound runs as follows: (293.15 K) 1582.7 ± 2.2 m/s; (298.15 K) 1564.7 ± 2.2 m/s; (303.15 K) 1545.8 ± 2.2 m/s. In addition, the mass density is, setting by setting: (293.15 K) 986.444 ± 0.82 kg/m3; (298.15 K) 982.487 ± 0.82 kg/m3; (303.15 K) 978.541 ± 0.81 kg/m3.

In the case of `CCCCCCC` [heptane], the speed of sound came out at 1150.9 ± 0.9 m/s (293.15 K), 1129.6 ± 0.9 m/s (298.15 K) and 1111.2 ± 0.9 m/s (303.15 K). Further, the mass density by setting is: (293.15 K) 683.845 ± 0.18 kg/m3; (298.15 K) 679.603 ± 0.18 kg/m3; (303.15 K) 675.532 ± 0.19 kg/m3.

In the case of `C1CCCCC1` [cyclohexane], the speed of sound is, setting by setting: (293.15 K) 1278 ± 1 m/s; (298.15 K) 1253.6 ± 0.9 m/s; (303.15 K) 1229.9 ± 0.9 m/s. The mass density is on record as 778.706 ± 0.15 kg/m3 (293.15 K), 774.018 ± 0.16 kg/m3 (298.15 K) and 769.297 ± 0.16 kg/m3 (303.15 K).
